Reference: US20170197979A1, “BENZOTHIADIAZOLAMINES” (BAYER PHARMA AKTIENGESELLSCHAFT, priority 2014, published 2017)

Target: T1, human full-length MKNK1 (Homo sapiens, UniProt Q9BUB5, T385D)
T1 construct: GST (N); purchased Carna Biosciences 02-145; host or cells: insect cells (baculovirus expression system)
Experiment: MKNK1 kinase high ATP assay (TR-FRET)
Assay type: biochemical
Conditions: TR-FRET, high ATP (2 mM final), 15 min preincubation with enzyme, GST-MKNK1 (T344D); read-out: MKNK1 IC50

T1 sequence (Q9BUB5 1-424 isoform Q9BUB5-2 T344D): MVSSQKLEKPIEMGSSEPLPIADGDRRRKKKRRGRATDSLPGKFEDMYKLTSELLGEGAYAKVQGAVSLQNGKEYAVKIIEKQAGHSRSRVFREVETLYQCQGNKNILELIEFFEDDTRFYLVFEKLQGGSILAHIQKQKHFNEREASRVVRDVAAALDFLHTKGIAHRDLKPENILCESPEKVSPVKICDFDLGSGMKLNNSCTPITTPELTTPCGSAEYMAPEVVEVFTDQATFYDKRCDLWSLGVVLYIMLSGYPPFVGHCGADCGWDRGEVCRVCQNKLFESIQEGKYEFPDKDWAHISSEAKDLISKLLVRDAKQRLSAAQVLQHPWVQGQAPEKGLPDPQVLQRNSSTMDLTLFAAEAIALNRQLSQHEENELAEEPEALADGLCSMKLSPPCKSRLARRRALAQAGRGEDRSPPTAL

Compound | IC50 [nM]
CCN(CCN(C)C)C(=O)[C@H]1CCc2c(sc3ncnc(Nc4cc5snnc5cc4OC)c23)C1 [Example 55, (7S)—N-[2-(Dimethylamino)ethyl]-N-ethyl-4-[(5-methoxy-1,2,3-benzothiadiazol-6-yl)amino]-5,6,7,8-tetrahydro[1]benzothieno[2,3-d]pyrimidine-7-carboxamide] | 8.9
COc1cc2nnsc2cc1Nc1ncnc2sc3c(c12)CC[C@H](C(=O)NCCC(F)(F)F)C3 [Example 56, (7S)-4-[(5-Methoxy-1,2,3-benzothiadiazol-6-yl)amino]-N-(3,3,3-trifluoropropyl)-5,6,7,8-tetrahydro[1]benzothieno[2,3-d]pyrimidine-7-carboxamide] | 7.3
CN1C[C@H]2C[C@@H]1CN2C(=O)[C@H]1CCc2c(sc3ncnc(Nc4ccc5nnsc5c4)c23)C1 [Example 59, [(7S)-4-(1,2,3-Benzothiadiazol-6-ylamino)-5,6,7,8-tetrahydro[1]benzothieno[2,3-d]pyrimidin-7-yl][(1R,4R)-5-methyl-2,5-diazabicyclo[2.2.1]hept-2-yl]methanone] | 3.2

The next compounds have a lower IC50 than those just listed; values first:

IC50 [nM] | Compound
1.6 | COc1cc2nnsc2cc1Nc1ncnc2sc3c(c12)CC[C@H](C(=O)N1C[C@H](O)[C@@H](O)C1)C3 [Example 57, [(3S,4S)-3,4-Dihydroxypyrrolidin-1-yl]{(7S)-4-[(5-methoxy-1,2,3-benzothiadiazol-6-yl)amino]-5,6,7,8-tetrahydro[1]benzothieno[2,3-d]pyrimidin-7-yl}methanone]
1.9 | COc1cc2nnsc2cc1Nc1ncnc2sc3c(c12)CC[C@H](C(=O)N1C[C@H]2C[C@@H]1CN2C)C3 [Example 58, {(7S)-4-[(5-Methoxy-1,2,3-benzothiadiazol-6-yl)amino]-5,6,7,8-tetrahydro[1]benzothieno[2,3-d]pyrimidin-7-yl}[(1R,4R)-5-methyl-2,5-diazabicyclo[2.2.1]hept-2-yl]methanone]
